# Assay results as given in patent publication US20240279218A1 (Hoffmann-La Roche Inc., priority 2016, published 2024).
# Assays:
# h-GABA-A α5β3γ2 [1] = target: T1, h-GABA-A α5β3γ2 (Homo sapiens (Human), UniProt P18507+P31644); experiment: Two-electrode voltage clamp electrophysiology in Xenopus oocytes expressing GABAA receptors, modulation of GABA EC20 current; format: cell-based; settings: Xenopus oocytes; for Efficacy (GABA) %: % modulation of GABA EC20 = 100*(Fold increase−1); for Fold increase h-GABA-A α5β3γ2 oocyte: GABA EC20, test compound at approx. 30 fold its Ki
# Method: Xenopus laevis oocytes at maturation stages V-VI were used for the expression of cloned mRNA encoding GABAA receptor subunits. Oocytes ready for RNA micro-injection were bought from Ecocyte, Castrop-Rauxel, Germany and stored in modified Barth's medium (composition in mM: NaCl 88, KCl 1, NaHCO32.4, HEPES 10, MgSO4 0.82, CaNO3 0.33, CaCl2) 0.33, pH=7.5) at 20° C. until the experiment.
# Oocytes were plated in 96-well plates to be used in an automated instrument (Robo-ocyte, MultiChannelSystems, Reutlingen, Germany) for microinjection and electrophysiological recordings. Approximately 50 nl of an aqueous solution containing the RNA transcripts for the subunits of the desired GABAA receptor was injected into each oocyte. RNA concentrations ranged between 0.3 and 16 ng/μl/subunit and were adjusted in pilot experiments to obtain GABA responses of a suitable size and a maximal effect of the reference modulator, Beta-CCM (β-CCM), a betacarboline negative allosteric modulator (NAM) at the GABAA receptor benzodiazepine (BZD) binding site or Midazolam, a benzodiazepine positive allosteric modulator (PAM) at the GABAA receptor benzodiazepine (BZD) binding site. The concentration of the γ2 subunit encoding RNA usually was 5-to 10-fold higher than the RNAs encoding the other subunits. Oocytes were kept in modified Barth's medium (composition in mM: NaCl 88, KCl 1, NaHCO3 4, HEPES 10, MgSO4 0.82, CaNO3 0.33, CaCl2 0.33, pH=7.5) at 20° C. until the experiment.
# Electrophysiological experiments were performed on days 3 to 5 after the micro-injection of mRNA. During the experiment the oocytes were constantly superfused by a solution containing (in mM) NaCl 90, KCl 1, HEPES 5, MgCl2 1, CaCl2 1 (pH 7.4). Oocytes were impaled by two glass microelectrodes (resistance: 0.4 MΩ) which were filled with a solution containing KCl 1M+K-acetate 1.5 M and voltage-clamped to −80 mV. The recordings were performed at room temperature using the Roboocyte two-electrode voltage clamp system (Multichannelsystem). After an initial equilibration period of 1.5 min GABA was added for 1.5 min at a concentration evoking approximately 20% of a maximal current response (EC20). After another rest interval of 2.5 min GABA was again added evoking a response of similar amplitude and shape. […] Current traces were recorded at a digitization rate of 10 Hz during and shortly before and after the GABA application.
# Each compound and concentration was tested on at least 3 oocytes.
# For the analysis, the digitized current traces of the first and second GABA response were superimposed and, if necessary, rescaled to equal maximal amplitudes. The ratio between the two responses during the time interval of test compound application was calculated point by point. The extremum of the resulting “ratio trace” was taken as the efficacy (“Fold increase”) of the compound expressed as “% modulation of GABA EC20” (100*(Fold increase−1)).
# h-GABA-A α5β3γ2 [2] = target: T1, h-GABA-A α5β3γ2; experiment: [3H]flumazenil competition binding assay, membranes of HEK293 cells expressing human GABAA receptors; settings: displacement of [3H]flumazenil 0.5 nM, HEK293 cells expressing human receptors, mean of two determinations; read-out: Ki h-GABA-A α5β3γ2
# Method: The affinity of compounds at GABAA receptor subtypes was measured by competition for [3H]flumazenil (85 Ci/mmol; Roche) binding to HEK293 cells expressing rat (stably transfected) or human (transiently transfected) receptors of composition α1β3γ2, α2β3γ2, α3β3γ2 and α5β3γ2.
# Cell pellets were suspended in Krebs-tris buffer (4.8 mM KCl, 1.2 mM CaCl2, 1.2 mM MgCl2, 120 mM NaCl, 15 mM Tris; pH 7.5; binding assay buffer), homogenized by polytron for ca. 20 sec on ice and centrifuged for 60 min at 4° C. (50000 g; Sorvall, rotor: SM24=20000 rpm). The cell pellets were resuspended in Krebs-tris buffer and homogenized by polytron for ca. 15 sec on ice. Protein was measured (Bradford method, Bio-Rad) and aliquots of 1 mL were prepared and stored at −80° C.
# Assays were incubated to equilibrium for 1 hour at 4° C. and harvested onto GF/C uni-filters (Packard) by filtration using a Packard harvester and washing with ice-cold wash buffer (50 mM Tris; pH 7.5). After drying, filter-retained radioactivity was detected by liquid scintillation counting. Ki values were calculated using Excel-Fit (Microsoft) and are the means of two determinations.
SMILES,Efficacy (GABA) % (h-GABA-A α5β3γ2 [1]) [%],Fold increase h-GABA-A α5β3γ2 oocyte (h-GABA-A α5β3γ2 [1]),Ki (h-GABA-A α5β3γ2 [2]) [nM]
"Cc1ccc(-c2noc(C)c2COc2ccc(C(=O)NCC3CC3)cn2)cn1 [Example 2, N-(cyclopropylmethyl)-6-((5-methyl-3-(6-methyl-3-pyridyl)isoxazol-4-yl)methoxy)pyridine-3-carboxamide]",63,1.63,8.3
"CCNC(=O)c1ccc(OCc2c(-c3ccc(C)nc3)noc2C)nc1 [Example 3, N-ethyl-6-((5-methyl-3-(6-methyl-3-pyridyl)isoxazol-4-yl)methoxy)pyridine-3-carboxamide]",41,1.41,1.4
"CCC[C@@H](CO)NC(=O)c1ccc(OCc2c(-c3ccc(C)nc3)noc2C)nc1 [Example 4, (S)—N-(1-hydroxypentan-2-yl)-6-((5-methyl-3-(6-methylpyridin-3-yl)isoxazol-4-yl)methoxy)nicotinamide]",150,2.5,7.3
"Cc1ccc(-c2noc(C)c2COc2ccc(C(=O)NC3CCOCC3)nn2)cn1 [Example 8, 6-((5-methyl-3-(6-methylpyridin-3-yl)isoxazol-4-yl)methoxy)-N-(tetrahydropyran-4-yl)pyridazine-3-carboxamide]",97,1.97,8.7
"Cc1ccc(-c2noc(C)c2COc2cc3c(cn2)C(=O)N(CC(C)C)C3)cn1 [Example 9, 2-isobutyl-6-((5-methyl-3-(6-methylpyridin-3-yl)isoxazol-4-yl)methoxy)-1H-pyrrolo[3,4-c]pyridin-3(2H)-one]",62,1.62,13.7
"Cc1ccc(-c2noc(C)c2COc2ccc(C(=O)NCC(C)C)cn2)cn1 [Example 11, N-isobutyl-6-((5-methyl-3-(6-methylpyridin-3-yl)isoxazol-4-yl)methoxy)nicotinamide]",55,1.55,11.2
"Cc1ccc(-c2noc(C)c2COc2cc3c(cn2)C(=O)N(CCO)C3)cn1 [Example 12, 2-(2-hydroxyethyl)-6-((5-methyl-3-(6-methylpyridin-3-yl)isoxazol-4-yl)methoxy)-1H-pyrrolo[3,4-c]pyridin-3(2H)-one]",74,1.74,16.3
"Cc1ccc(-c2noc(C)c2COc2cnc(C(=O)NC3CCOCC3)cn2)cn1 [Example 15, 5-((5-methyl-3-(6-methylpyridin-3-yl)isoxazol-4-yl)methoxy)-N-(tetrahydropyran-4-yl)pyrazine-2-carboxamide]",55,1.55,19.8
"Cc1ccc(-c2noc(C)c2COc2ccc(C(N)=O)nn2)cn1 [Example 18, 6-((5-methyl-3-(6-methylpyridin-3-yl)isoxazol-4-yl)methoxy)pyridazine-3-carboxamide]",59,1.59,10.2
"Cc1ccc(-c2noc(C)c2COc2ccc(C(=O)N[C@H]3CCS(=O)(=O)C3)cn2)cn1 [Example 19, N-((3S)-1,1-dioxothiolan-3-yl)-6-((5-methyl-3-(6-methylpyridin-3-yl)-1,2-oxazol-4-yl)methoxy)pyridine-3-carboxamide]",77,1.77,5.2
"Cc1ccc(-c2noc(C)c2COc2ccc(C(=O)N[C@@H]3CCS(=O)(=O)C3)cn2)cn1 [Example 20, N-((3R)-1,1-dioxothiolan-3-yl)-6-((5-methyl-3-(6-methylpyridin-3-yl)-1,2-oxazol-4-yl)methoxy)pyridine-3-carboxamide]",95,1.95,11.8
"Cc1ccc(-c2noc(C)c2COc2ccc(C(=O)NC3CCS(=O)(=O)CC3)cn2)cn1 [Example 21, N-(1,1-dioxothian-4-yl)-6-((5-methyl-3-(6-methylpyridin-3-yl)-1,2-oxazol-4-yl)methoxy)pyridine-3-carboxamide]",119,2.19,5.4

# More lines, now with the values ahead:
Efficacy (GABA) % (h-GABA-A α5β3γ2 [1]) [%],Fold increase h-GABA-A α5β3γ2 oocyte (h-GABA-A α5β3γ2 [1]),Ki (h-GABA-A α5β3γ2 [2]) [nM],SMILES
245,3.45,58.6,"CCC[C@@H](CO)NC(=O)c1ccc(OCc2c(-c3ccc(C)nc3)noc2C2CC2)nc1 [Example 5, 6-((5-cyclopropyl-3-(6-methyl-3-pyridyl)isoxazol-4-yl)methoxy)-N-((1S)-1-(hydroxymethyl)butyl)pyridine-3-carboxamide]"
167,2.67,54.1,"Cc1ccc(-c2noc(C3CC3)c2COc2ccc(C(=O)NC3CCOCC3)cn2)cn1 [Example 6, 6-((5-cyclopropyl-3-(6-methyl-3-pyridyl)isoxazol-4-yl)methoxy)-N-tetrahydropyran-4-yl-pyridine-3-carboxamide]"
102,2.02,25.6,"CCC[C@@H](CO)NC(=O)c1ccc(OCc2c(-c3ccc(C)nc3)noc2C)nn1 [Example 7, (S)—N-(1-hydroxypentan-2-yl)-6-((5-methyl-3-(6-methylpyridin-3-yl)isoxazol-4-yl)methoxy)pyridazine-3-carboxamide]"
80,1.8,18.9,"Cc1ccc(-c2noc(C)c2COc2cc3c(cn2)C(=O)N(C)C3)cn1 [Example 10, 2-methyl-6-((5-methyl-3-(6-methylpyridin-3-yl)isoxazol-4-yl)methoxy)-1H-pyrrolo[3,4-c]pyridin-3(2H)-one]"
158,2.58,14.4,"CCC[C@@H](CO)N1Cc2cc(OCc3c(-c4ccc(C)nc4)noc3C)ncc2C1=O [Example 13, (S)-2-(1-hydroxypentan-2-yl)-6-((5-methyl-3-(6-methylpyridin-3-yl)isoxazol-4-yl)methoxy)-1H-pyrrolo[3,4-c]pyridin-3(2H)-one]"
160,2.6,74.5,"CCC[C@@H](CO)NC(=O)c1cnc(OCc2c(-c3ccc(C)nc3)noc2C)cn1 [Example 14, N-((1S)-1-(hydroxymethyl)butyl)-5-((5-methyl-3-(6-methyl-3-pyridyl)isoxazol-4-yl)methoxy)pyrazine-2-carboxamide]"
85,1.85,19.2,"Cc1ccc(-c2noc(C)c2COc2ccc(C(=O)NC3CCS(=O)(=O)C3)cn2)cn1 (stereo not drawn) [Example 16, N-(1,1-dioxothiolan-3-yl)-6-((5-methyl-3-(6-methyl-3-pyridyl)isoxazol-4-yl)methoxy)pyridine-3-carboxamide]"
60,1.6,9.8,"Cc1ccc(-c2noc(C)c2COc2ccc(C(N)=O)cn2)cn1 [Example 17, 6-((5-methyl-3-(6-methylpyridin-3-yl)isoxazol-4-yl)methoxy)nicotinamide]"
